The text below walks through data of patent US20240058243A1, “A METHOD FOR FIGHTING MICROORGANISMS USING MENTHOL DERIVATIVES” (priority 2020, published 2024).

Values after ≈ are worked out from the molar mass of the structure shown. Read-outs that look alike come from different tables or passages of the source.

Broadly, the MIC is the smallest concentration in the dilution series that meets the test's criterion for growth inhibition.

One assay concerns Candida albicans. As to the kind of experiment: Minimum inhibitory concentration, pure culture. Type of assay: cell-based. The text has this: (§1) Antimicrobial activity was also investigated with pure cultures for three different cooling compounds. The results of Triclosan, a well-known antimicrobial, are shown for comparison.
The subject of a further assay is Corynebacterium xerosis. As to the kind of experiment: Minimum inhibitory concentration, pure culture. The format is cell-based.
Source text: as §1

The subject of another assay is Staphylococcus aureus. Briefly: Minimum inhibitory concentration, pure culture. The format is cell-based.
Source text: as §1

The subject of assay [1] is Staphylococcus epidermidis. Briefly: Minimum inhibitory concentration, pure culture. The format is cell-based.
Source text: as §1

In the next assay the test system is Staphylococcus hominis. As to the kind of experiment: Minimum inhibitory concentration, pure culture. The format is cell-based.
Source text: as §1

In the next assay the test system is Escherichia coli. Briefly: Minimum inhibitory concentration, pure culture. The format is cell-based. Particulars: for MIC: Escherichia coli, read-out: MIC Escherichia coli; for MIC Escherichia coli: Example 2 table (oral care). The text has this: (§2) Antimicrobial activity was also investigated with pure cultures for three different cooling compounds. The results of Triclosan, a well-known antimicrobial, are shown for comparison. (Table 7):
(§3) The differential inhibition of microorganisms was also investigated with strains that typically are found in the oral cavity and that are related to oral diseases like gingivitis or caries. The cooling compounds show a better efficacy against Streptococcus mutans, Streptococcus salivarius, Porphyromonas gingivalis and Fusobacterium nucleatum in comparison to Escherichia coli.

In the next assay the test system is Anaerococcus octavius. As to the kind of experiment: Minimum inhibitory concentration, pure culture. The format is cell-based.
Source text: as §2
It should be emphasized that Anaerococcus octavius represents the category of anaerobic odour causing bacteria. As a matter of fact, it is very hard to find antimicrobial materials which are active against these germs.

A further assay relates to Fusobacterium nucleatum. Briefly: Minimum inhibitory concentration, oral cavity strains. The format is cell-based. As to conditions: read-out: MIC Fusobacterium nucleatum.
Source text: as §3

A further assay relates to Porphyromonas gingivalis. The assay is described as above. Type of assay: cell-based. As to conditions: read-out: MIC Porphyromonas gingivalis.
Source text: as §3

A further assay deals with Streptococcus mutans. Described as above. Type of assay: cell-based. As to conditions: read-out: MIC Streptococcus mutans.
Source text: as §3

The test system of a further assay is Streptococcus salivarius. Described as above. The format is cell-based. Particulars: Example 2 table (oral care).
Source text: as §3

The subject of assay [2] is axillary microbiome in human axillary sweat. As to the kind of experiment: Axillary microbiome ex vivo model: aerobic and anaerobic cell counts. The format is cell-based. The text has this:
(§4) The formation of sweat odour was investigated in an axillary microbiome ex vivo model that is based on human axillary sweat. […] This includes accumulation of volatile organic acids related to sweat odour (measured with GC-MS) and conversion of non-odorous precursor molecules to the respective odorous product (measured with HPLC) going along with the development of the typical sweat odour (assessed by a sensory panel).
(§5) The resulting sweat odour is the result of microbial activity. Those microorganisms that can metabolize the nutrients contained in the sweat can also increase their cell number. Untreated sweat starts with a cell number of about 10^7 cells/ml. These numbers increase by a magnitude during incubation, both for aerobic as well as anaerobic cell count. […] Anaerobic genera like Anaerococcus, Peptoniphilus, and Finegoldia are part of the natural axillary flora (Zeeuwen et al (2012), Troccaz et al (2015)). As some of their assigned species are known to be odour causing (Fuji 2014), the limitation of their increase is of high importance for the management of the typical sweat odor. […] Table 2 refers to change in microbiome composition.

Assay [3] shares this test system. As to the kind of experiment: Axillary microbiome ex vivo model: microbiome composition. Type of assay: cell-based.
Source text: as §4, §5

In assay [4] the test system is sweat odour of human axillary sweat. As to the kind of experiment: Axillary microbiome ex vivo model: sweat odour rating by sensory panel.
Source text: as §4

The subject of assay [5] is conversion of non-odorous precursor molecules in human axillary sweat. Briefly: Axillary microbiome ex vivo model: HPLC-MS of non-odourous precursors and odorous products. The format is cell-based.
Source text: as §4

The subject of assay [6] is volatile organic acids in human axillary sweat. As to the kind of experiment: Axillary microbiome ex vivo model: volatile organic acids (GC-MS). The format is cell-based.
Source text: as §4

Where [7] appears, read: Table 7, read-out: MIC Candida albicans.
The mark [8] stands for this setting: Table 7, read-out: MIC Corynebacterium xerosis.
The mark [9] stands for this setting: Table 7, read-out: MIC Staphylococcus aureus.
[10] abbreviates: Table 7, read-out: MIC Staphylococcus epidermidis.
Setting [11] is: Table 7, read-out: MIC Staphylococcus hominis.
Where [12] appears, read: Table 7, read-out: MIC Anaerococcus octavius.
Setting [13] is: 5,000 ppm, after 48 h incubation of fresh sweat.

As for `CC(C)[C@@H]1CC[C@@H](C)CC12OCC(CO)O2` (mixture of isomers) [Frescolat ® MGA, Menthon Glyceryl Acetal], the MIC with Candida albicans (setting [7]) is more than 1 µg/mL; in the assay on Corynebacterium xerosis (setting [8]), 500 µg/mL; with Staphylococcus aureus (setting [9]), 1 µg/mL; in assay [1] (setting [10]), 500 µg/mL; in the assay with Staphylococcus hominis (setting [11]), 500 µg/mL; in the assay with Escherichia coli (Table 7), more than 1 µg/mL. In addition, the MIC in the assay on Anaerococcus octavius (setting [12]) came to 2.5 µg/mL; in the assay on Fusobacterium nucleatum (Example 2 table (oral care)), 500 µg/mL; with Porphyromonas gingivalis (Example 2 table (oral care)) it was 250 µg/mL; with Streptococcus mutans (Example 2 table (oral care)), 500 µg/mL; against Streptococcus salivarius, 500 µg/mL. Besides, the “MIC Escherichia coli” value with Escherichia coli is listed as more than 1.000 ppm.
Consider `Oc1cc(Cl)ccc1Oc1ccc(Cl)cc1Cl` [Triclosan, reference compound], for which the MIC is 16 µg/mL (≈ 55.3 µM) in the assay with Candida albicans (read-out: MIC Candida albicans); 8 µg/mL (≈ 27.6 µM) in the assay on Corynebacterium xerosis (read-out: MIC Corynebacterium xerosis); 2 µg/mL (≈ 6.91 µM) with Staphylococcus aureus (read-out: MIC Staphylococcus aureus); 4 µg/mL (≈ 13.8 µM) in assay [1] (read-out: MIC Staphylococcus epidermidis); 4 µg/mL (≈ 13.8 µM) with Staphylococcus hominis (read-out: MIC Staphylococcus hominis); more than 1 µg/mL in the assay with Escherichia coli. The minimal inhibitory concentration (MIC) is more than 500 µg/mL in the assay on Anaerococcus octavius (read-out: MIC Anaerococcus octavius), 8 µg/mL (≈ 27.6 µM) with Fusobacterium nucleatum, 1 µg/mL (≈ 3.45 µM) with Porphyromonas gingivalis and 8 µg/mL (≈ 27.6 µM) in the assay on Streptococcus mutans. In addition, the “MIC Escherichia coli” value in the assay on Escherichia coli is given as more than 1 ppm.
On to `CC(C)[C@@H]1CC[C@@H](C)C[C@H]1OC(=O)OCCO` [Frescolat ® MGC, Menthol Ethylene Glycol Carbonate], for which the MIC is more than 1 µg/mL in the assay on Candida albicans (setting [7]); 500 µg/mL (≈ 2050 µM) in the assay with Corynebacterium xerosis (setting [8]); 500 µg/mL (≈ 2050 µM) in the assay with Staphylococcus aureus (setting [9]); 500 µg/mL (≈ 2050 µM) with Staphylococcus hominis (setting [11]); more than 1 µg/mL in the assay with Escherichia coli (Table 7); 1 µg/mL (≈ 4.09 µM) in the assay with Anaerococcus octavius (setting [12]). Further, the MIC in the assay with Fusobacterium nucleatum (Example 2 table (oral care)) amounted to 16 µg/mL (≈ 65.5 µM); with Porphyromonas gingivalis (Example 2 table (oral care)) it was 125 µg/mL (≈ 512 µM); in the assay on Streptococcus mutans (Example 2 table (oral care)), 250 µg/mL (≈ 1020 µM); against Streptococcus salivarius it was 500 µg/mL (≈ 2050 µM). For the same compound, the “MIC Escherichia coli” value in the assay with Escherichia coli is given as more than 1.000 ppm.
For the compound `CC(O)C(=O)O[C@@H]1C[C@H](C)CC[C@H]1C(C)C` (stereo in doubt) [Frescolat ® ML, Menthyl Lactate], the “Cell number development compared to untreated” value in assay [2] (5000 ppm added to fresh sweat) is listed as “slight reduction compared to untreated”. In assay [2] (setting [13]), this compound gave an Aerobic cell count of 6.85E+07 cells/ml and an Anaerobic cell count of 1.08E+07 cells/ml. In assay [3] (5000 ppm added to fresh sweat), the “Abundance of anaerobic odour causing genera Anaerococcus, Finegoldia and Moraxella” value was “inhibited in their abundance increase”; the “Relative abundance of Raoultella, Corynebacterium and Staphylococcus versus untreated” value is listed as “same relative abundance as in the untreated sample”. In addition, in assay [3] (5,000 ppm, after 48 h), the “Relative abundance Anaerococcus” value is on record as 1.6%, the “Relative abundance Below 0.1%” value came to 1.1%, the “Relative abundance Citrobacter” value is recorded as 11.7% and the “Relative abundance Corynebacterium” value was 2.8%. Moreover, in assay [3] (5,000 ppm, after 48 h), the “Relative abundance Enterobacter” value is given as 32.6%, the “Relative abundance Finegoldia” value turned out to be 0.2%, the “Relative abundance Kluyvera” value was found to be 0.9% and the “Relative abundance Moraxella” value amounted to 0.0%. Also, in [3] (5,000 ppm, after 48 h), the “Relative abundance Propionibacterium” value came out at 7.6%, the “Relative abundance Raoultella” value is listed as 39.1%, the “Relative abundance Staphylococcus” value is reported as 2.2% and the “Relative abundance Streptococcus” value is given as 0.1%. Moreover, in [3] (5,000 ppm, after 48 h), the “Relative abundance Undefined” value was found to be 0.0%. Also, the “Odour development in sensory analysis in comparison to untreated” value in assay [4] (5000 ppm added to fresh sweat) is given as “clear reduction of odour development”. Further, in assay [4] (5000 ppm, 48 h, mean of 8 panelists), the “Odor rating (smell intensity), mean” value was found to be 2.4. Moreover, in assay [5] (5000 ppm added to fresh sweat), the “Formation of odorous products” value is reported as “drastically reduced formation”. Also, in assay [5] (5000 ppm, 48 h), the “Concentration of non-odourous pre-cursour N-α-3-hydroxy-3-methylhexanoyl-L-glutamine (HMHA-Gln)” value is recorded as 102.24 ppm; the “Concentration of non-odourous pre-cursour N-α-[(2E)-3-methyl-2-hexenoyl]-L-glutamine (3M2H-Gln)” value worked out at 10.42 ppm; the “Concentration of odorous products, line N-α-3-hydroxy-3-methylhexanoyl-L-glutamine (HMHA-Gln)” value amounted to 0.43 ppm; the “Concentration of odorous products, line N-α-[(2E)-3-methyl-2-hexenoyl]-L-glutamine (3M2H-Gln)” value turned out to be 1.69 ppm. Besides, the “Formation of volatile organic acids” value in [6] (5000 ppm added to fresh sweat) is listed as “drastically reduced formation”. Further, in assay [6] (5000 ppm, 48 h), the “Concentration of 2-Methylbutyric Acid” value came to 0 ppm, the “Concentration of Acetic Acid” value was found to be 11.1 ppm, the “Concentration of Butyric Acid” value came out at 0.3 ppm and the “Concentration of Capric Acid” value is given as 1.3 ppm. Moreover, in assay [6] (5000 ppm, 48 h), the “Concentration of Capronic Acid” value worked out at 0.6 ppm, the “Concentration of Caprylic Acid” value was found to be 1.5 ppm, the “Concentration of Lauric Acid” value was 1.7 ppm and the “Concentration of Propanoic Acid” value was found to be 2.2 ppm. In addition, the “Concentration of Valeric Acid” value in [6] (5000 ppm, 48 h) is 0 ppm. Further, the MIC with Candida albicans (setting [7]) came to 1 µg/mL. Moreover, the MIC in the assay with Corynebacterium xerosis (setting [8]) was 250 µg/mL. Besides, the MIC in the assay with Staphylococcus aureus (setting [9]) was found to be 250 µg/mL. Moreover, the MIC in assay [1] (setting [10]) is 500 µg/mL. In the assay with Staphylococcus hominis (setting [11]), the MIC came out at 250 µg/mL. Further, in the assay with Escherichia coli (Table 7), the MIC was more than 5 µg/mL. Moreover, the “MIC Escherichia coli” value against Escherichia coli is more than 5.000 ppm. Besides, the MIC with Anaerococcus octavius (setting [12]) was 500 µg/mL. Further, in the assay on Fusobacterium nucleatum (Example 2 table (oral care)), the MIC turned out to be 250 µg/mL. For the same compound, the MIC in the assay on Porphyromonas gingivalis (Example 2 table (oral care)) turned out to be 125 µg/mL. In the assay on Streptococcus mutans (Example 2 table (oral care)), the MIC stood at 125 µg/mL. Further, in the assay with Streptococcus salivarius, the MIC worked out at 500 µg/mL.
